The results in this text go back to patent US20220046923A1, “HERBICIDAL CINNOLINIUM COMPOUNDS” (SYNGENTA CROP PROTECTION AG, priority 2018, published 2022).

Holding throughout (test): Post-emergence efficacy, glasshouse spray test
Holding throughout (type): in vivo

Assay [1] concerns Digitaria sanguinalis (DIGSA). The settings on record: Digitaria sanguinalis, post-emergence, 312 h; application rate 1000 g/Ha; evaluated after 13 days; read-out: Control of weed species DIGSA after post-emergence application (100=total damage to plant; 0=no damage to plant). The method, then:
(§1) Seeds of a variety of test species were sown in standard soil in pots. After cultivation for 14 days (post-emergence) under controlled conditions in a glasshouse (at 24/16° C., day/night; 14 hours light; 65% humidity), the plants were sprayed with an aqueous spray solution derived from the dissolution of the technical active ingredient formula (I) in a small amount of acetone and a special solvent and emulsifier mixture referred to as IF50 (11.12% Emulsogen EL360 TM+44.44% N-methylpyrrolidone+44.44% Dowanol DPM glycol ether), to create a 50 g/l solution which was then diluted to required concentration using 0.25% or 1% Empicol ESC70 (Sodium lauryl ether sulphate)+1% ammonium sulphate as diluent. The test plants were then grown in a glasshouse under controlled conditions (at 24/16° C., day/night; 14 hours light; 65% humidity) and watered twice daily. After 13 days the test was evaluated (100=total damage to plant; 0=no damage to plant).
(§2) Ipomoea hederacea (IPOHE), Euphorbia heterophylla (EPHHL), Chenopodium album (CHEAL), Amaranthus palmeri (AMAPA), Lolium perenne (LOLPE), Digitaria sanguinalis (DIGSA), Eleusine indica (ELEIN), Echinochloa crus-galli (ECHCG), Setaria faberi (SETFA)

For assay [2], the system named is Amaranthus palmeri (AMAPA). The settings on record: Amaranthus palmeri, post-emergence, 312 h; application rate 1000 g/Ha; evaluated after 13 days; read-out: Control of weed species AMAPA after post-emergence application (100=total damage to plant; 0=no damage to plant). How it is done: as §1, §2
Assay [3] deals with Euphorbia heterophylla (EPHHL). Particulars: Euphorbia heterophylla, post-emergence, 312 h; application rate 1000 g/Ha; evaluated after 13 days; read-out: Control of weed species EPHHL after post-emergence application (100=total damage to plant; 0=no damage to plant). How it is done: as §1, §2
In the next assay the test system is Lolium perenne (LOLPE). Particulars: Lolium perenne, post-emergence, 312 h; application rate 1000 g/Ha; evaluated after 13 days; read-out: Control of weed species LOLPE after post-emergence application (100=total damage to plant; 0=no damage to plant). The method, then:
as §1, §2

Assay [4] relates to Echinochloa crus-galli (ECHCG). The settings on record: Echinochloa crus-galli, post-emergence, 312 h; application rate 1000 g/Ha; evaluated after 13 days; read-out: Control of weed species ECHCG after post-emergence application (100=total damage to plant; 0=no damage to plant). How it is done: as §1, §2
For another assay, the system named is Setaria faberi (SETFA). Particulars: Setaria faberi, post-emergence, 312 h; application rate 1000 g/Ha; evaluated after 13 days; read-out: Control of weed species SETFA after post-emergence application (100=total damage to plant; 0=no damage to plant). How it is done: as §1, §2
Assay [5] has as its system Ipomoea hederacea (IPOHE). The settings on record: Ipomoea hederacea, post-emergence, 312 h; application rate 1000 g/Ha; evaluated after 13 days; read-out: Control of weed species IPOHE after post-emergence application (100=total damage to plant; 0=no damage to plant). How it is done:
as §1, §2

A further assay relates to Eleusine indica (ELEIN). Particulars: Eleusine indica, post-emergence, 312 h; application rate 1000 g/Ha; evaluated after 13 days; read-out: Control of weed species ELEIN after post-emergence application (100=total damage to plant; 0=no damage to plant). How it is done: as §1, §2
Assay [6] relates to Chenopodium album (CHEAL). The settings on record: Chenopodium album, post-emergence, 312 h; application rate 1000 g/Ha; evaluated after 13 days; read-out: Control of weed species CHEAL after post-emergence application (100=total damage to plant; 0=no damage to plant). The method, then:
as §1, §2

As to `COC(=O)C[n+]1ccc2ccccc2n1` [Compound A1, methyl 2-cinnolin-2-ium-2-ylacetate bromide], the pest or weed control at 1000 g/ha in assay [1] was 70%; in assay [2] it was 100%; in assay [3], 90%; in the assay on Lolium perenne (LOLPE), 40%; in [4] it was 70%; in the assay on Setaria faberi (SETFA) it was 60%. The pest or weed control at 1000 g/ha in assay [5] stood at 50%; in the assay with Eleusine indica (ELEIN) it was 100%; in [6], 60%.
As for `O=C([O-])C[n+]1ccc2ccccc2n1` [Compound A2, 2-cinnolin-2-ium-2-ylacetate], the pest or weed control at 1000 g/ha in assay [1] came to 100%; in assay [2], 100%; in [3], 90%; in the assay with Lolium perenne (LOLPE), 20%; in assay [4], 100%; in the assay on Setaria faberi (SETFA) it was 80%. Besides, the pest or weed control at 1000 g/ha in [5] came out at 40%; in the assay on Eleusine indica (ELEIN), 100%; in assay [6] it was 80%.
For `COC(=O)C[n+]1cc(C)c2cc(C)cc(C)c2n1` [Compound A3], the pest or weed control at 1000 g/ha came out at 0% in assay [1]; 20% in assay [2]; 20% in [3]; 20% in the assay on Lolium perenne (LOLPE); 0% in assay [4]; 10% in the assay on Setaria faberi (SETFA). The values for the pest or weed control at 1000 g/ha (in assay [5]; in the assay on Eleusine indica (ELEIN); in [6]) were 10%, 0% and 10%, respectively.
As to `Cc1cc(C)c2n[n+](CC(=O)[O-])cc(C)c2c1` [Compound A4], the pest or weed control at 1000 g/ha in [1] worked out at 10%; in assay [2], 40%; in [3] it was 40%; in the assay on Lolium perenne (LOLPE), 10%; in [4], 10%; in the assay with Setaria faberi (SETFA), 0%. Besides, the results for the pest or weed control at 1000 g/ha (in assay [5]; with Eleusine indica (ELEIN); in [6]) were 30%, 20% and 10%, respectively.
For the compound `CONC(=O)C[n+]1cc(C)c2cc(C)cc(C)c2n1` [Compound A5], the pest or weed control at 1000 g/ha in [1] is 10%; in assay [2] it was 30%; in [3] it was 30%; in the assay on Lolium perenne (LOLPE), 0%; in [4], 0%; in the assay with Setaria faberi (SETFA) it was 10%. Besides, the results for the pest or weed control at 1000 g/ha (in assay [5]; in the assay with Eleusine indica (ELEIN); in assay [6]) were 20%, 10% and 20%, respectively.
For the compound `Cc1cc(C)c2n[n+](CC(=O)OC(C)C)cc(C)c2c1` [Compound A6, isopropyl 2-(4,6,8-trimethylcinnolin-2-ium-2-yl)acetate chloride], the pest or weed control at 1000 g/ha came out at 10% in assay [1]; 40% in [2]; 30% in [3]; 10% in the assay with Lolium perenne (LOLPE); 10% in assay [4]; 10% with Setaria faberi (SETFA). In addition, the pest or weed control at 1000 g/ha was 10% in assay [5], 30% in the assay on Eleusine indica (ELEIN) and 20% in [6].
With `COC(=O)C[n+]1cc(C)c2cccc(C)c2n1` [Compound A7], the pest or weed control at 1000 g/ha in assay [1] turned out to be 0%; in [2] it was 30%; in assay [3] it was 20%; with Lolium perenne (LOLPE), 20%; in assay [4], 10%; in the assay with Setaria faberi (SETFA), 10%. Besides, the pest or weed control at 1000 g/ha in assay [5] amounted to 10%; with Eleusine indica (ELEIN), 20%; in assay [6], 30%.
In the case of `Cc1c[n+](CC(=O)[O-])nc2c(C)cccc12` [Compound A8], the pest or weed control at 1000 g/ha in [1] came out at 30%; in assay [2] it was 50%; in assay [3], 40%; in the assay on Lolium perenne (LOLPE) it was 10%; in assay [4], 20%; with Setaria faberi (SETFA), 10%. The values for the pest or weed control at 1000 g/ha (in assay [5]; with Eleusine indica (ELEIN); in [6]) were 30%, 50% and 60%, respectively.
Consider `COC(=O)C[n+]1cc(C)c2cc(C)ccc2n1` [Compound A9], for which the pest or weed control at 1000 g/ha in assay [1] stood at 40%; in assay [2], 10%; in assay [3] it was 50%; in the assay with Lolium perenne (LOLPE), 10%; in [4], 10%; with Setaria faberi (SETFA) it was 10%. Besides, the results for the pest or weed control at 1000 g/ha (in [5]; with Eleusine indica (ELEIN); in [6]) were 20%, 70% and 60%, respectively.
For `Cc1ccc2n[n+](CC(=O)[O-])cc(C)c2c1` [Compound A10], the pest or weed control at 1000 g/ha in assay [1] came to 50%; in [2], 30%; in assay [3] it was 40%; in the assay with Lolium perenne (LOLPE), 10%; in assay [4], 40%; in the assay with Setaria faberi (SETFA), 40%. Besides, the pest or weed control at 1000 g/ha was 40% in [5], 70% with Eleusine indica (ELEIN) and 30% in [6].
For the compound `Cc1c[n+](CCS(=O)(=O)[O-])nc2ccccc12` [Compound A11], the pest or weed control at 1000 g/ha in assay [1] came out at 40%; in assay [2] it was 100%; in assay [3], 80%; in the assay on Lolium perenne (LOLPE) it was 0%; in assay [4] it was 60%; in the assay on Setaria faberi (SETFA), 70%. Moreover, the pest or weed control at 1000 g/ha in assay [5] was determined as 80%; in the assay on Eleusine indica (ELEIN), 80%; in assay [6], 100%.
As for `N[C@H](CC[n+]1ccc2ccccc2n1)C(=O)O` [Compound A12, [(1R)-1-carboxy-3-cinnolin-2-ium-2-yl-propyl]ammonium 2,2,2-trifluoroacetate], the pest or weed control at 1000 g/ha in assay [1] came out at 80%; in [2], 80%; in [3], 50%; in the assay with Lolium perenne (LOLPE), 40%; in assay [4], 40%; with Setaria faberi (SETFA), 50%. For the same compound, the values for the pest or weed control at 1000 g/ha (in assay [5]; with Eleusine indica (ELEIN); in assay [6]) were 60%, 90% and 70%, respectively.
On to `COC(=O)c1cccc(C[n+]2ccc3ccccc3n2)c1` [Compound A90], for which the pest or weed control at 1000 g/ha was 10% in assay [1]; 20% in assay [2]; 30% in assay [3]; 0% in the assay with Lolium perenne (LOLPE); 10% in assay [4]; 0% in the assay with Setaria faberi (SETFA). Besides, the pest or weed control at 1000 g/ha stood at 10% in assay [5] and 20% in the assay on Eleusine indica (ELEIN).
